Experiments:
AURKB = target: T1, AURKB (Homo sapiens, UniProt Q96GD4); assay: Kinobeads competition binding: AURKB; conditions: target AURKB
T1 construct: endogenous in cells

CDC42 = assay: Kinobeads competition binding: CDC42; design: species or system human; conditions: target CDC42
CDK10 = assay: Kinobeads competition binding: CDK10; design: species or system human; conditions: target CDK10
CDK12 = assay: Kinobeads competition binding: CDK12; design: species or system human; conditions: target CDK12
EPHA2 = target: T2, EPHA2 (Homo sapiens, UniProt P29317); assay: Kinobeads competition binding: EPHA2; conditions: target EPHA2
T2 construct: endogenous in cells
T2 sequence (P29317 24-976): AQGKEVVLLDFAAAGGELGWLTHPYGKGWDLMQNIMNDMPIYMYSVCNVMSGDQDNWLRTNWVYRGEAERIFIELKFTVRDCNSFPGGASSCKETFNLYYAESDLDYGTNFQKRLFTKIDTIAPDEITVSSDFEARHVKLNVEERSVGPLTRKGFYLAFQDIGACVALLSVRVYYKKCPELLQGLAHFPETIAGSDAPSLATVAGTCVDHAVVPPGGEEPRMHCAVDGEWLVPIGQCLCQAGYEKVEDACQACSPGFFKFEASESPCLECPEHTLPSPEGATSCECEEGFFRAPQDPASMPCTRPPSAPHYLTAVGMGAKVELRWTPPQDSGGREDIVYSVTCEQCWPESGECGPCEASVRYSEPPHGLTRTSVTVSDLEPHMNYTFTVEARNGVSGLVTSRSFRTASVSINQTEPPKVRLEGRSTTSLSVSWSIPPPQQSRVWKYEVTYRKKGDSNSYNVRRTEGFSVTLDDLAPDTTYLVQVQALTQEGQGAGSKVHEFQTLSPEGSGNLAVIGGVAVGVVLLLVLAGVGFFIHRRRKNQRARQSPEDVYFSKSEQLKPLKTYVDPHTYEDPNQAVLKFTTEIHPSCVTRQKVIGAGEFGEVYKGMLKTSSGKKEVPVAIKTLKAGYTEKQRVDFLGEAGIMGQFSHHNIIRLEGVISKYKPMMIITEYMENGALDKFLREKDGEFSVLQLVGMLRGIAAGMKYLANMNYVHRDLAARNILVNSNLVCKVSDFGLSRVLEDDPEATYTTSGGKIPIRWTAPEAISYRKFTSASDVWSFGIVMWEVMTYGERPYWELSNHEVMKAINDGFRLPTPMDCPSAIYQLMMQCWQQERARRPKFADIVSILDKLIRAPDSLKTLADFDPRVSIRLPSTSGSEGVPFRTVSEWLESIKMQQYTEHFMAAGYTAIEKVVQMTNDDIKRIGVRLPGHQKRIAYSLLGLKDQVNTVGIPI
Source text: Supplement 41589_2023_1459_MOESM4_ESM.xlsx, sheet "CATDS matrix" | column: EPHA2

IRAK4 = assay: Kinobeads competition binding: IRAK4; design: species or system human; conditions: target IRAK4
MAP2K1 = assay: Kinobeads competition binding: MAP2K1; design: species or system human; conditions: target MAP2K1
MAP4K5 = assay: Kinobeads competition binding: MAP4K5; design: species or system human; conditions: target MAP4K5
MAPK3 = assay: Kinobeads competition binding: MAPK3; design: species or system human; conditions: target MAPK3
MAPK7 = assay: Kinobeads competition binding: MAPK7; design: species or system human; conditions: target MAPK7
MARK2 = assay: Kinobeads competition binding: MARK2; design: species or system human; conditions: target MARK2
NAT10 = assay: Kinobeads competition binding: NAT10; design: species or system human; conditions: target NAT10
NUAK2 = target: T3, NUAK2 (Homo sapiens, UniProt Q9H093); assay: Kinobeads competition binding: NUAK2; conditions: target NUAK2
T3 construct: a mixture of lysates from five cancer cell lines; endogenous in cells
T3 sequence (Q9H093 1-628): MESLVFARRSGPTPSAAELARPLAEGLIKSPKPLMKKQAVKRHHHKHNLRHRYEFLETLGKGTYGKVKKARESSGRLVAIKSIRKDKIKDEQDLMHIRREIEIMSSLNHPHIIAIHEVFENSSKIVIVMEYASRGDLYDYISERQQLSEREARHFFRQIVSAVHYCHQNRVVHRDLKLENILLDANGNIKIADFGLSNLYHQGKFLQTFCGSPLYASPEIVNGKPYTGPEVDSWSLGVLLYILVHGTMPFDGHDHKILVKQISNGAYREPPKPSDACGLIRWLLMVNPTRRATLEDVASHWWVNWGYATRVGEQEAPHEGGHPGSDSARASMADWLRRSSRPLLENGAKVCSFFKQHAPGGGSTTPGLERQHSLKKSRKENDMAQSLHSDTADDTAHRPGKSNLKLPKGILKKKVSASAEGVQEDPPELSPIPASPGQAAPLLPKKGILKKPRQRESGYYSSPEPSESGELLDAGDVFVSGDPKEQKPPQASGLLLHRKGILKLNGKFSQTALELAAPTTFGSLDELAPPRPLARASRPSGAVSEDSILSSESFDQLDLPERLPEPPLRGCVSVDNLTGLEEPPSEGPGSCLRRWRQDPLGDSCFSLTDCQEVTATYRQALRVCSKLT
Source text: Supplement 41589_2023_1459_MOESM4_ESM.xlsx, sheet "CATDS matrix" | column: NUAK2

PHKG2 = target: T4, PHKG2 (Homo sapiens, UniProt P15735); assay: Kinobeads competition binding: PHKG2; conditions: target PHKG2
T4 construct: a mixture of lysates from five cancer cell lines; endogenous in cells
T4 sequence (P15735 1-406): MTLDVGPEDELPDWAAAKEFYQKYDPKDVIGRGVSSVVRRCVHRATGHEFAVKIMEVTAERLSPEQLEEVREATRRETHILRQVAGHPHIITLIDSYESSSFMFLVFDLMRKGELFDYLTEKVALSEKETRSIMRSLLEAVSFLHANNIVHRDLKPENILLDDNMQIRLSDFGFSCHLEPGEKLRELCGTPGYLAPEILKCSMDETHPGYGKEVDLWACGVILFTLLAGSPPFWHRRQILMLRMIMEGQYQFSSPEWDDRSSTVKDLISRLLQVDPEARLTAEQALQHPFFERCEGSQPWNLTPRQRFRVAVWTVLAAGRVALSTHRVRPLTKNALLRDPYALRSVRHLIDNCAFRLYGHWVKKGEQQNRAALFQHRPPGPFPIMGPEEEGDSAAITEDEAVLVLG

PKN2 = target: T5, PKN2 (Homo sapiens, UniProt Q16513); assay: Kinobeads competition binding: PKN2; conditions: target PKN2;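 further: share of total target engagement due to this protein at one drug concentration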
T5 construct: a mixture of lysates from five cancer cell lines; endogenous in cells
T5 sequence (Q16513 whole entry): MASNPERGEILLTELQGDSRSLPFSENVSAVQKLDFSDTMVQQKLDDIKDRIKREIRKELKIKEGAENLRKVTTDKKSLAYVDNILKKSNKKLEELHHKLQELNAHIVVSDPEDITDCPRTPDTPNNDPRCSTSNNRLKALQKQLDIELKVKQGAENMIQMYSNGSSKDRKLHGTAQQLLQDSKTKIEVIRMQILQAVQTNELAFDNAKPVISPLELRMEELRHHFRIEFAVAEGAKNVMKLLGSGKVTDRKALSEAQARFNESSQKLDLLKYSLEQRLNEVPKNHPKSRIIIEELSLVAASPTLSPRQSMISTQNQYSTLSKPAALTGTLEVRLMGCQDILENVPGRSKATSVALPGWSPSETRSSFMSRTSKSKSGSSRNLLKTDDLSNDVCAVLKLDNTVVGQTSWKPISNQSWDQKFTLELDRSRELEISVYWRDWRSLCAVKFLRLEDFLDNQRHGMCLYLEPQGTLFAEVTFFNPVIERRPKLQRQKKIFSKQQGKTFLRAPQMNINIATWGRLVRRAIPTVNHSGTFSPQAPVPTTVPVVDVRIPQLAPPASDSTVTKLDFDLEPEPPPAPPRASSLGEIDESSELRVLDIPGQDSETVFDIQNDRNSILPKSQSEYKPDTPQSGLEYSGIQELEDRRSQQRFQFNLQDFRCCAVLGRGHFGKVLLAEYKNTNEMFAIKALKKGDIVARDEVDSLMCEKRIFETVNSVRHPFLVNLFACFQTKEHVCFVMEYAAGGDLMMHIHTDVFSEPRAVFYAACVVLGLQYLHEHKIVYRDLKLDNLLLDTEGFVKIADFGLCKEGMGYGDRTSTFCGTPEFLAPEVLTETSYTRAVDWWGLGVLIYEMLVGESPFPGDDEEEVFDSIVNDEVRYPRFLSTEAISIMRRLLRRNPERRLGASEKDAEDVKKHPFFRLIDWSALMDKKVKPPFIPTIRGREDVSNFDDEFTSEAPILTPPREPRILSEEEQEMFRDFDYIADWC
Source text: Supplement 41589_2023_1459_MOESM4_ESM.xlsx, sheet "CATDS matrix" | column: PKN2

ADCK3 = ADCK3 (Homo sapiens, UniProt Q8NI60); assay: Kinobeads competition binding: ADCK3; design: endogenous in cells; conditions: target ADCK3
Sequence of ADCK3 (Q8NI60 163-647): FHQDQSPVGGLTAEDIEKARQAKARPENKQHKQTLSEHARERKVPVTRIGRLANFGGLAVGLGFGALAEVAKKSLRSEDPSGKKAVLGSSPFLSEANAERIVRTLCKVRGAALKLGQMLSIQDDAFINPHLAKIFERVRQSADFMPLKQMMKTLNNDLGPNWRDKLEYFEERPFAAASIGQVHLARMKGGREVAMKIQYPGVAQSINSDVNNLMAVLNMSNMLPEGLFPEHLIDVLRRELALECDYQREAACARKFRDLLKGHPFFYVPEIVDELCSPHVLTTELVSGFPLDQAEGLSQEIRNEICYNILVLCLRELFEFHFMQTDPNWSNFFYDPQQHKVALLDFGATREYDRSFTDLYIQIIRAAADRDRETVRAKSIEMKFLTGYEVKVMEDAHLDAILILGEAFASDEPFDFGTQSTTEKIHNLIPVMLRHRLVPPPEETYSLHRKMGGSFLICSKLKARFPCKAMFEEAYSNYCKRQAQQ

CSNK1E = target: T6, CSNK1E (Homo sapiens, UniProt P49674); assay: Kinobeads competition binding: CSNK1E; conditions: target CSNK1E
T6 construct: endogenous in cells
T6 sequence (P49674 whole entry): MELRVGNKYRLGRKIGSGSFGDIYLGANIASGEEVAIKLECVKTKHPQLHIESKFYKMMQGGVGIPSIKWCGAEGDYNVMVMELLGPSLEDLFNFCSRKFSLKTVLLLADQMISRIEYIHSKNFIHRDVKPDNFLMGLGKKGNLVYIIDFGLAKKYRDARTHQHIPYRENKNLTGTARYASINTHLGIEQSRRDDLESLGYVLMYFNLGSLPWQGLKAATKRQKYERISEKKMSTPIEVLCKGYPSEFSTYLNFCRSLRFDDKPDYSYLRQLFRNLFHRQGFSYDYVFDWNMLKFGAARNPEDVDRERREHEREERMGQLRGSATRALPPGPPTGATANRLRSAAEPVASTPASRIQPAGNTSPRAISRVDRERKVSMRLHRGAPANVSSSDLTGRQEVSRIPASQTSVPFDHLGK

Measured: CATDS

T1 sequence (Q96GD4 whole entry): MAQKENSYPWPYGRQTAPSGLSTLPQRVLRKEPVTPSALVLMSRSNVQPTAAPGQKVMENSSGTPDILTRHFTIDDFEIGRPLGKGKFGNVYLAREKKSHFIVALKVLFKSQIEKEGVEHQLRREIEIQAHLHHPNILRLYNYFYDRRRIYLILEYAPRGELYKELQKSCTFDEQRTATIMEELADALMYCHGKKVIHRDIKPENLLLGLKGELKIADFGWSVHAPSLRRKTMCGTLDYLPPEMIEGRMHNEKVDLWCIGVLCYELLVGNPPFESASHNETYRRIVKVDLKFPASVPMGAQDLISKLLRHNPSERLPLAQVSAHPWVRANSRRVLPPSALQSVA

CCN1CCN(Cc2ccc(Nc3ncc(F)c(-c4cc(F)c5nc(C)n(C(C)C)c5c4)n3)nc2)CC1 [Abemaciclib]
0: AURKB | CDC42 | CDK10 | CDK12 | EPHA2 | IRAK4 | MAP2K1 | MAP4K5 | MAPK3 | MAPK7 | MARK2 | NAT10 | NUAK2 | PHKG2 | PKN2 | ADCK3

N#CC1(c2ccc(NC(=O)c3cccnc3NCc3ccncc3)cc2)CCCC1 [Apatinib]
0: AURKB | CDC42 | CDK10 | CDK12 | CSNK1E | EPHA2 | IRAK4 | MAP2K1 | MAP4K5 | MAPK3 | MAPK7 | MARK2 | NAT10 | NUAK2 | PHKG2 | PKN2 | ADCK3

CN(C)C/C=C/C(=O)Nc1cc2c(Nc3ccc(F)c(Cl)c3)ncnc2cc1O[C@H]1CCOC1 [Afatinib]
0: CDC42 | CDK10 | CDK12 | CSNK1E | EPHA2 | NAT10 | NUAK2 | PKN2

Nc1ncnc2[nH]c(-c3ccccc3)nc12 [AH5015_KCGS]
0: AURKB | CDC42 | CDK10 | CDK12 | CSNK1E | EPHA2 | IRAK4 | MAP2K1 | MAP4K5 | MAPK3 | MAPK7 | MARK2 | NAT10 | NUAK2 | PHKG2 | PKN2 | ADCK3

CCc1cc2c(cc1N1CCC(N3CCOCC3)CC1)C(C)(C)c1[nH]c3cc(C#N)ccc3c1C2=O [Alectinib]
0: AURKB | CDC42 | CDK10 | CDK12 | CSNK1E | EPHA2 | IRAK4 | MAP2K1 | MAP4K5 | MAPK3 | MAPK7 | MARK2 | NAT10 | NUAK2 | PHKG2 | PKN2 | ADCK3
